Patent US20020183279A1, “Pharmaceutical composition containing viscoelastic substance and medication” (Koichiro TANAKA, priority 2001, published 2002)

Tested on: Bacillus substilis (ATCC6633)
Assay: Inhibition circle (penicillin cup) measurement of antimicrobial activity changed by viscoelastic substance
Assay type: cell-based, Bacillus subtilis
Method: The activity of an antimicrobial agent changes depending upon a type of viscoelastic substance. Such a change was measured by using Bacillus substilis (ATCC6633 referred to as “B subtilis”) and the following viscoelastic substances: First, B. subtilis (0.1 mL of 1.4×10^8 CFU/ML) was spread on a 4% heart infusion medium. Subsequently, a penicillin cup was placed on the medium, and a test solution was poured in the cup. As test solutions, the following groups were used. 0.1 mL of an antimicrobial agent was added to a penicillin cup. Five concentrations from […] were prepared for each antimicrobial agent; 0.1 mL of a viscoelastic substance was added to a penicillin cup; After 0.1 mL of a viscoelastic substance was added to a penicillin cup and allowed to stand still and then 0.1 mL of 5 or 2.5 μg/mL antimicrobial agent was gently added to the viscoelastic substance layer; and 0.1 mL of a viscoelastic substance and 0.1 mL of 5 or 2.5 μg/mL antimicrobial agent were mixed and added to a penicillin cup. Each group was cultured in an incubator at 35° C. for 24 hours. The size of the inhibition circle of B. subtilis was measured. Based on the measurement results of the single antimicrobial agent group, a curve showing the size of inhibition circle versus the antimicrobial agent concentration (referred to as a standard curve) was obtained with respect to individual antimicrobial agents.

Structure (SMILES): CCn1cc(C(=O)O)c(=O)c2cc(F)c(N3CCNCC3)cc21 [NFLX, norfloxacin]
- activity of the antimicrobial agent compared to the standard curve (layered group: NFLX layered on HL, OP or VC): lower than the standard
- antimicrobial activity, ranking among viscoelastic substances (layered group: NFLX layered on VC): lowest
- bacterial proliferation suppression activity compared to the standard curve (mixture group: NFLX mixed with HL, OP or VC, FIG. 5): lower than values of the standard curve but not so significant
